Holding throughout (assay type): in vivo
For assay [1], the system named is fall armyworm larvae (Spodoptera frugiperda). Nature of the assay: Spodoptera frugiperda spray test. As to conditions: 168 h, maize leaf sections, after 7 days. As for the experimental part:
Spodoptera fruaiperda—Spray Test
Solvent: 78.0 parts by weight acetone • 1.5 parts by weight dimethylformamide
Emulsifier: alkylarylpolyglycol ether
To produce a suitable preparation of active compound, 1 part by weight of active compound is mixed with the stated amount of solvents and is diluted with water, containing an emulsifier concentration of 1000 ppm, to the desired concentration. Further test concentrations are prepared by dilution with emulsifier containing water.
Maize (Zea mays) leaf sections are sprayed with a preparation of the active ingredient of the desired concentration. Once dry, the leaf sections are infested with fall armyworm larvae (Spodoptera frugiperda).
After 7 days mortality in % is determined. 100% means all caterpillars have been killed and 0% means none of the caterpillars have been killed.

Assay [2] concerns larvae of the banded cucumber beetle (Diabrotica balteata). Kind of assay: Diabrotica balteata spray test. As to conditions: 168 h, after 7 days, read-out: efficacy (seedling growth); for pest or weed control at 6.4 µg/disc, 20 g/ha: 20 g/ha (=6.4 μg/well); for pest or weed control at 32 µg/disc, 100 g/ha: 100 g/ha (=32 μg/well). The method in brief: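 Efficacy was read 7 days after infesting each unit with 10–20 banded cucumber beetle larvae, as % of seedlings growing like untreated, uninfested controls. Before infestation, wheat seeds germinated 1 day on agar (5 per well) were sprayed with the active ingredient. The active was formulated in acetone/DMF and diluted in water containing emulsifier.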

Assay [3] concerns adult cat fleas (Ctenocephalides felis). Nature of the assay: Ctenocephalides felis in-vitro contact test, adult cat flea. As to conditions: after 48 hours, read-out: efficacy (fleas dead or moribund); for pest or weed control at 5 µg/cm2, 500 g/ha: 5 μg/cm^2 (=500 g/ha); for pest or weed control at 1 µg/cm2, 100 g/ha: 1 μg/cm^2 (=100 g/ha). As for the experimental part:
Ctenocephalides felis—In-Vitro Contact Tests Adult Cat Flea
9 mg compound is solved in 1 ml acetone and diluted with acetone to the desired concentration. 250 μL of the test solution is filled in 25 mL glass test tubes and homogeneously distributed on the inner walls by rotation and tilting on a shaking device (2 h at 30 rpm). With a compound concentration of 900 ppm, an inner surface of 44.7 cm^2 and a homogeneous distribution, a dose of 5 μg/cm^2 is achieved.
After the solvent has evaporated, each test tube is filled with 5-10 adult cat fleas (Ctenocephalides felis), closed with a perforated lid and incubated in a lying position at room temperature and relative humidity. After 48 hours efficacy is determined. The fleas are patted on the ground of the tubes and are incubated on a heating plate at 45-50° C. for at most 5 minutes Immotile or uncoordinated moving fleas, which are not able to escape the heat by climbing upwards, are marked as dead or moribund.
An efficacy of 100% means all fleas are dead or moribund; 0% means no fleas are dead or moribund.

Assay [4] concerns Rhipicephalus (Boophilus) microplus larvae (strain Parkhurst, resistant against synthetic pyrethroids). Nature of the assay: Rhipicephalus (Boophilus) microplus in-vitro contact test, larval cattle tick. The conditions noted are these: after 48 hours, read-out: efficacy (larvae dead or moribund); for pest or weed control at 1 µg/cm2, 100 g/ha: 1 μg/cm^2 (=100 g/ha); for pest or weed control at 5 µg/cm2, 500 g/ha: 5 μg/cm^2 (=500 g/ha). The method in brief: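 Pyrethroid-resistant larvae (strain Parkhurst), 20–50 per tube, exposed by contact to a dried acetone film of compound (5 μg/cm² at 900 ppm) for 48 h at 27 °C and 85% humidity. Percent dead or moribund larvae scored from negative geotactic behaviour.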

The structures appear in SMILES notation.

What is called mortality is the share of the test organisms that died. Read a high mortality as a strong lethal effect.

As for `CC(NC(=O)c1cc(Cl)cc(Br)c1)c1nccnc1-c1ccc(Cl)cn1` (stereo not shown) [Example I-19], the mortality at 100 g/ha in assay [1] was 100%. Also, in assay [2], the pest or weed control at 6.4 µg/disc, 20 g/ha stood at 100% and the pest or weed control at 32 µg/disc, 100 g/ha stood at 100%. Also, in assay [3], the pest or weed control at 5 µg/cm2, 500 g/ha came out at 80%.
As for `CC(NC(=O)c1cc(Br)cc(C#N)c1)c1nccnc1-c1ccc(C(=O)N2CCOCC2)cn1` (racemic) [Example I-33, (rac)-3-Bromo-5-cyano-N-[1-{3-[5-(morpholine-4-carbonyl)pyridin-2-yl]pyrazin-2-yl}ethyl]benzamide], the pest or weed control at 1 µg/cm2, 100 g/ha is 90% in assay [4] and 100% in assay [3]. For the same molecule, the pest or weed control at 5 µg/cm2, 500 g/ha in assay [4] and in assay [3] was 100% throughout.
On to `CC(NC(=O)c1cc(Br)cc(C(F)(F)F)c1)c1nccnc1-c1ncc(C(=O)N(C)C)s1` (racemic) [Example I-118, (rac)-2-(3-{1-[3-Bromo-5-(trifluoromethyl)benzamido]ethyl}pyrazin-2-yl)-N,N-dimethyl-1,3-thiazole-5-carboxamide], for which, in assay [1], the mortality at 100 g/ha was found to be 100%. In addition, in assay [2], the pest or weed control at 6.4 µg/disc, 20 g/ha worked out at 100% and the pest or weed control at 32 µg/disc, 100 g/ha came out at 100%. In assay [4], the pest or weed control at 1 µg/cm2, 100 g/ha was determined as 100% and the pest or weed control at 5 µg/cm2, 500 g/ha amounted to 100%. Besides, the pest or weed control at 5 µg/cm2, 500 g/ha in assay [3] turned out to be 90%.
Regarding `CCNC(=O)c1ccc(-c2nccnc2C(C)NC(=O)c2cc(C(F)(F)F)cc(C(F)(F)F)c2)nc1` (racemic) [Example I-35, (rac)-6-(3-{1-[3,5-Bis(trifluoromethyl)benzamido]ethyl}pyrazin-2-yl)-N-ethylpyridine-3-carboxamide], in assay [4], the pest or weed control at 1 µg/cm2, 100 g/ha was found to be 100% and the pest or weed control at 5 µg/cm2, 500 g/ha came to 100%. Moreover, in assay [3], the pest or weed control at 1 µg/cm2, 100 g/ha is 80% and the pest or weed control at 5 µg/cm2, 500 g/ha is 100%.
With `CC(NC(=O)c1cc(C(F)(F)F)cc(C(F)(F)F)c1)c1nccnc1-c1ccc(C(=O)N(C)CC2CC2)cn1` (racemic) [Example I-32, (rac)-6-(3-{1-[3,5-Bis(trifluoromethyl)benzamido]ethyl}pyrazin-2-yl)-N-(cyclopropylmethyl)-N-methylpyridine-3-carboxamide], in assay [1], the mortality at 100 g/ha came out at 100%. In assay [4], the pest or weed control at 1 µg/cm2, 100 g/ha was found to be 100% and the pest or weed control at 5 µg/cm2, 500 g/ha turned out to be 100%. In assay [3], the pest or weed control at 5 µg/cm2, 500 g/ha stood at 100%.
In turn, `CC(NC(=O)c1cc(Br)cc(C(F)(F)F)c1)c1nccnc1-c1ncc(C(=O)N2C[C@@H](C)O[C@@H](C)C2)s1` (mixture of isomers) [Example I-120, (rac)-3-Bromo-N-[1-(3-{5-[(cis)-2,6-dimethylmorpholine-4-carbonyl]-1,3-thiazol-2-yl}pyrazin-2-yl)ethyl]-5-(trifluoromethyl)benzamide] displayed a mortality at 100 g/ha in assay [1] of 100%. Also, the pest or weed control at 32 µg/disc, 100 g/ha in assay [2] is 100%. In assay [4], the pest or weed control at 1 µg/cm2, 100 g/ha was 100% and the pest or weed control at 5 µg/cm2, 500 g/ha worked out at 100%.
In turn, `CC(NC(=O)c1cc(Cl)cc(S(=O)(=O)C(F)(F)F)c1)c1nccnc1-n1cc(C#N)cn1` (racemic) [Example I-114, (rac)-3-Chloro-N-{1-[3-(4-cyano-1H-pyrazol-1-yl)pyrazin-2-yl]ethyl}-5-(trifluoromethanesulfonyl)benzamide] gave a mortality at 100 g/ha in assay [1] of 100%. Besides, in assay [2], the pest or weed control at 32 µg/disc, 100 g/ha was determined as 100%. Moreover, in assay [4], the pest or weed control at 1 µg/cm2, 100 g/ha stood at 90% and the pest or weed control at 5 µg/cm2, 500 g/ha turned out to be 90%.
On to `CC(NC(=O)c1cc(Br)cc(OC(F)(F)F)c1)c1nccnc1-c1ncc(C(=O)N2CCOCC2)s1` (racemic) [Example I-61, (rac)-3-Bromo-N-[1-{3-[5-(morpholine-4-carbonyl)-1,3-thiazol-2-yl]pyrazin-2-yl}ethyl]-5-(trifluoromethoxy)benzamide], for which the pest or weed control at 1 µg/cm2, 100 g/ha in assay [4] and in assay [3] was 100% throughout. The pest or weed control at 5 µg/cm2, 500 g/ha in assay [4] and in assay [3] was 100% throughout.
In turn, `CC(NC(=O)c1cc(Br)cc(OC(F)(F)F)c1)c1nccnc1-c1ncc(C(=O)N(C)CC2CC2)s1` (racemic) [Example I-76, (rac)-2-(3-{1-[3-Bromo-5-(trifluoromethoxy)benzamido]ethyl}pyrazin-2-yl)-N-(cyclopropylmethyl)-N-methyl-1,3-thiazole-5-carboxamide] returned a mortality at 100 g/ha in assay [1] of 100%. Further, in assay [2], the pest or weed control at 6.4 µg/disc, 20 g/ha came to 100% and the pest or weed control at 32 µg/disc, 100 g/ha is 100%. Further, in assay [4], the pest or weed control at 1 µg/cm2, 100 g/ha is 100% and the pest or weed control at 5 µg/cm2, 500 g/ha is 100%.
`CC(NC(=O)c1cc(C(F)(F)F)cc(C(F)(F)F)c1)c1nccnc1-n1cc(C(=O)N2CCOCC2)cn1` (racemic) [Example I-90, N-[(rac)-1-{3-[4-(Morpholine-4-carbonyl)-1H-pyrazol-1-yl]pyrazin-2-yl}ethyl]-3,5-bis(trifluoromethyl)benzamide] yielded a mortality at 100 g/ha in assay [1] of 100%. In addition, the pest or weed control at 32 µg/disc, 100 g/ha in assay [2] turned out to be 100%. In addition, in assay [4], the pest or weed control at 1 µg/cm2, 100 g/ha was found to be 100% and the pest or weed control at 5 µg/cm2, 500 g/ha worked out at 100%.
As for `COc1ccc(-c2nccnc2C(C)NC(=O)c2cc(Br)cc(OC(F)(F)F)c2)nc1` (stereo not shown) [Example I-27], the pest or weed control at 32 µg/disc, 100 g/ha in assay [2] is 100%. Besides, in assay [4], the pest or weed control at 1 µg/cm2, 100 g/ha worked out at 90% and the pest or weed control at 5 µg/cm2, 500 g/ha stood at 80%. Further, in assay [3], the pest or weed control at 1 µg/cm2, 100 g/ha came out at 80% and the pest or weed control at 5 µg/cm2, 500 g/ha is 80%.
For the molecule `CC(NC(=O)c1cc(Cl)cc(C(F)(F)F)c1)c1nccnc1-c1ccc(C(F)(F)F)cn1` (racemic) [Example I-46, (rac)-3-Chloro-5-(trifluoromethyl)-N-[1-{3-[5-(trifluoromethyl)pyridin-2-yl]pyrazin-2-yl}ethyl]benzamide], the mortality at 100 g/ha in assay [1] stood at 100%. Further, the pest or weed control at 32 µg/disc, 100 g/ha in assay [2] was determined as 100%. Besides, in assay [4], the pest or weed control at 1 µg/cm2, 100 g/ha turned out to be 100% and the pest or weed control at 5 µg/cm2, 500 g/ha was 100%.
`CC(NC(=O)c1cc(C(F)(F)F)cc(C(F)(F)F)c1)c1nccnc1-c1ncc(C(=O)N(C)CC2CC2)s1` (racemic) [Example I-51, (rac)-2-(3-{1-[3,5-Bis(trifluoromethyl)benzamido]ethyl}pyrazin-2-yl)-N-(cyclopropylmethyl)-N-methyl-1,3-thiazole-5-carboxamide]: the mortality at 100 g/ha in assay [1] is 100%. In assay [2], the pest or weed control at 6.4 µg/disc, 20 g/ha worked out at 100% and the pest or weed control at 32 µg/disc, 100 g/ha was 100%. Also, in assay [4], the pest or weed control at 1 µg/cm2, 100 g/ha was 90% and the pest or weed control at 5 µg/cm2, 500 g/ha worked out at 90%.
`CC(NC(=O)c1cc(OC(F)F)cc(OC(F)F)c1)c1nccnc1-c1ncc(C(=O)N(C)CC2CC2)s1` (racemic) [Example I-143, (rac)-2-(3-{1-[3,5-Bis(difluoromethoxy)benzamido]ethyl}pyrazin-2-yl)-N-(cyclopropylmethyl)-N-methyl-1,3-thiazole-5-carboxamide] registered a mortality at 100 g/ha in assay [1] of 100%. Besides, in assay [2], the pest or weed control at 6.4 µg/disc, 20 g/ha turned out to be 100% and the pest or weed control at 32 µg/disc, 100 g/ha came to 100%. Also, in assay [4], the pest or weed control at 1 µg/cm2, 100 g/ha is 100% and the pest or weed control at 5 µg/cm2, 500 g/ha was determined as 90%.
In assay [1], `Cc1cnc(C(C)NC(=O)c2cc(C(F)(F)F)cc(C(F)(F)F)c2)c(-c2ncc(C(=O)N(C)CC#N)s2)n1` (racemic) [Example I-124, (rac)-2-(3-{1-[3,5-Bis(trifluoromethyl)benzamido]ethyl}-6-methylpyrazin-2-yl)-N-(cyanomethyl)-N-methyl-1,3-thiazole-5-carboxamide] yielded a mortality at 100 g/ha of 100%. Besides, in assay [2], the pest or weed control at 6.4 µg/disc, 20 g/ha is 100% and the pest or weed control at 32 µg/disc, 100 g/ha turned out to be 100%. Besides, in assay [4], the pest or weed control at 1 µg/cm2, 100 g/ha came to 100% and the pest or weed control at 5 µg/cm2, 500 g/ha worked out at 100%.

These data come from patent publication US12583851B2, “Heteroaryl-substituted pyrazine derivatives as pesticides” (Elanco Animal Health GmbH, priority 2019, dated 2026).
